Measured values reported in ChEMBL document CHEMBL1201861, “Genomics of Drug Sensitity in Cancer screening data, Wellcome Trust Sanger Institute”.

How the values were obtained:
Experiment in all cases: cells
697 = format: functional, cell-based; settings: Homo sapiens
Description: SANGER: Inhibition of human 697 cell growth in a cell viability assay.

HuP-T4 = format: functional, cell-based, Homo sapiens; settings: Homo sapiens, HuP-T4;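 also: cell viability assay measuring how much HuP-T4 cell growth is inhibited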
Description: SANGER: Inhibition of human HuP-T4 cell growth in a cell viability assay.

MFM-223 = format: functional, cell-based, Homo sapiens; settings: Homo sapiens, MFM-223
Description: SANGER: Inhibition of human MFM-223 cell growth in a cell viability assay.

JAR = format: functional, cell-based, Homo sapiens; settings: Homo sapiens, JAR;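 also: growth inhibition of human JAR cells determined with a cell viability assay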
Description: SANGER: Inhibition of human JAR cell growth in a cell viability assay.

NCI-H727 = format: functional, cell-based, Homo sapiens; settings: Homo sapiens, NCI-H727;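 also: growth inhibition of human NCI-H727 cells, read out with a cell viability assay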
Description: SANGER: Inhibition of human NCI-H727 cell growth in a cell viability assay.

UO-31 = format: functional, cell-based; settings: Homo sapiens;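 also: cell viability assay measuring inhibition of cell growth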
Description: SANGER: Inhibition of human U031 cell growth in a cell viability assay.

KS-1 = format: functional, cell-based, Homo sapiens; settings: Homo sapiens, KS-1;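 also: growth inhibition of KS-1 cells, read out with a cell viability assay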
KM12 = format: functional, cell-based, Homo sapiens; settings: Homo sapiens, KM12;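 also: KM12 cell growth inhibition, read out with a cell viability assay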
Description: SANGER: Inhibition of human KM12 cell growth in a cell viability assay.

BE-13 = format: functional, cell-based; settings: Homo sapiens;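 also: growth inhibition of human BE-13 cells, measured with a cell viability assay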
Description: SANGER: Inhibition of human BE-13 cell growth in a cell viability assay.

CAMA-1 = format: functional, cell-based, Homo sapiens; settings: Homo sapiens, CAMA-1;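 also: growth inhibition of CAMA-1 cells, read out with a cell viability assay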
Description: SANGER: Inhibition of human CAMA-1 cell growth in a cell viability assay.

KARPAS-299 = format: functional, cell-based; settings: Homo sapiens
Description: SANGER: Inhibition of human KARPAS-299 cell growth in a cell viability assay.

KU812 cell line = format: functional, cell-based; settings: Homo sapiens;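 also: growth inhibition of KU812 cells, read out with a cell viability assay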
Description: SANGER: Inhibition of human KU812 cell growth in a cell viability assay.

OVCAR-4 = format: functional, cell-based, Homo sapiens; settings: Homo sapiens, OVCAR-4;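 also: growth inhibition of human OVCAR-4 cells, measured with a cell viability assay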
Description: SANGER: Inhibition of human OVCAR-4 cell growth in a cell viability assay.

UACC-257 = format: functional, cell-based, Homo sapiens; settings: Homo sapiens, UACC-257
Description: SANGER: Inhibition of human UACC-257 cell growth in a cell viability assay.

DOK = format: functional, cell-based, Homo sapiens; settings: Homo sapiens, DOK;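 also: cell viability assay read-out, values reflect inhibition of cell growth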
Description: SANGER: Inhibition of human DOK cell growth in a cell viability assay.

MC116 = format: functional, cell-based; settings: Homo sapiens;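 also: growth inhibition of MC116 cells, read out with a cell viability assay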
Description: SANGER: Inhibition of human MC116 cell growth in a cell viability assay.

A-375 = format: functional, cell-based, Homo sapiens; settings: Homo sapiens, A-375;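 also: growth inhibition of A375 cells, read out with a cell viability assay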
Description: SANGER: Inhibition of human A375 cell growth in a cell viability assay.

IA-LM = format: functional, cell-based, Homo sapiens; settings: Homo sapiens, IA-LM;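 also: cell viability assay measuring growth inhibition of human IA-LM cells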
Description: SANGER: Inhibition of human IA-LM cell growth in a cell viability assay.

MEL-HO = format: functional, cell-based, Homo sapiens; settings: Homo sapiens, MEL-HO
Description: SANGER: Inhibition of human MEL-HO cell growth in a cell viability assay.

BFTC-905 = format: functional, cell-based, Homo sapiens; settings: Homo sapiens, BFTC-905
Description: SANGER: Inhibition of human BFTC-905 cell growth in a cell viability assay.

CTV-1 = format: functional, cell-based; settings: Homo sapiens;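 also: growth inhibition of the cell line, read out with a cell viability assay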
Description: SANGER: Inhibition of human CTV-1 cell growth in a cell viability assay.

NB7 = format: functional, cell-based; settings: Homo sapiens;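 also: growth inhibition of NB7 cells, read out with a cell viability assay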
Description: SANGER: Inhibition of human NB7 cell growth in a cell viability assay.

HAL-01 = format: functional, cell-based; settings: Homo sapiens;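 also: growth inhibition of human HAL-01 cells, read out with a cell viability assay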
Description: SANGER: Inhibition of human HAL-01 cell growth in a cell viability assay.

OCI-AML2 = format: functional, cell-based; settings: Homo sapiens;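 also: growth inhibition of OCI-AML2 cells, read out with a cell viability assay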
Description: SANGER: Inhibition of human OCI-AML2 cell growth in a cell viability assay.

LAMA-84 = format: functional, cell-based; settings: Homo sapiens;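 also: growth inhibition of LAMA-84 cells, read out with a cell viability assay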
Description: SANGER: Inhibition of human LAMA-84 cell growth in a cell viability assay.

SK-OV-3 = format: functional, cell-based, Homo sapiens; settings: Homo sapiens, SK-OV-3;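 also: growth inhibition of SK-OV-3 human cells, read out with a cell viability assay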
Description: SANGER: Inhibition of human SK-OV-3 cell growth in a cell viability assay.

BEN = format: functional, cell-based, Homo sapiens; settings: Homo sapiens, BEN;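 also: growth inhibition of the BEN cell line, read out with a cell viability assay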
Description: SANGER: Inhibition of human BEN cell growth in a cell viability assay.

NCI-H1581 = format: functional, cell-based, Homo sapiens; settings: Homo sapiens, NCI-H1581;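 also: cell growth inhibition read out by a viability assay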
Description: SANGER: Inhibition of human NCI-H1581 cell growth in a cell viability assay.

NTERA-2-cl-D1 = format: functional, cell-based, Homo sapiens; settings: Homo sapiens, NTERA-2-cl-D1;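 also: inhibition of cell growth, measured with a cell viability assay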
Description: SANGER: Inhibition of human NTERA-S-cl-D1 cell growth in a cell viability assay.

CAL-85-1 = format: functional, cell-based; settings: Homo sapiens;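 also: growth inhibition of human CAL-85-1 cells, read out with a cell viability assay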
LS-411N = format: functional, cell-based, Homo sapiens; settings: Homo sapiens, LS-411N
OMC-1 = format: functional, cell-based, Homo sapiens; settings: Homo sapiens, OMC-1;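 also: growth inhibition of the OMC-1 cell line, measured by a cell viability assay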
Description: SANGER: Inhibition of human OMC-1 cell growth in a cell viability assay.

RPMI-7951 = format: functional, cell-based, Homo sapiens; settings: Homo sapiens, RPMI-7951
Description: SANGER: Inhibition of human RPMI-7951 cell growth in a cell viability assay.

KOSC-2 = format: functional, cell-based, Homo sapiens; settings: Homo sapiens, KOSC-2;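 also: growth inhibition of KOSC-2 cells, read out by a cell viability assay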
A-431 = format: functional, cell-based, Homo sapiens; settings: Homo sapiens, A-431;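 also: growth inhibition of A-431 cells, determined with a cell viability read-out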
Description: SANGER: Inhibition of human A431 cell growth in a cell viability assay.

HCC1806 = format: functional, cell-based, Homo sapiens; settings: Homo sapiens, HCC1806;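 also: growth inhibition of the cancer cell line, determined with a cell viability assay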
Description: SANGER: Inhibition of human HCC1806 cell growth in a cell viability assay.

GCT = format: functional, cell-based, Homo sapiens; settings: Homo sapiens, GCT;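 also: GCT cell line proliferation inhibition, read out with a cell viability assay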
Description: SANGER: Inhibition of human GCT cell growth in a cell viability assay.

KM-H2 = format: functional, cell-based; settings: Homo sapiens;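 also: growth inhibition of KM-H2 cells, read out by a cell viability assay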
Description: SANGER: Inhibition of human KM-H2 cell growth in a cell viability assay.

CAL-33 = format: functional, cell-based, Homo sapiens; settings: Homo sapiens, CAL-33;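 also: growth inhibition of CAL-33 cells, read out with a cell viability assay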
Description: SANGER: Inhibition of human CAL-33 cell growth in a cell viability assay.

IST-SL1 = format: functional, cell-based, Homo sapiens; settings: Homo sapiens, IST-SL1;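 also: growth inhibition of human IST-SL1 cells, read out with a cell viability assay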
Description: SANGER: Inhibition of human IST-SL1 cell growth in a cell viability assay.

DK-MG = format: functional, cell-based, Homo sapiens; settings: Homo sapiens, DK-MG;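 also: growth inhibition of DK-MG cells, read out with a cell viability assay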
Description: SANGER: Inhibition of human DK-MG cell growth in a cell viability assay.

MG-63 = format: functional, cell-based, Homo sapiens; settings: Homo sapiens, MG-63;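 also: growth inhibition of human MG-63 cells, read out with a cell viability assay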
Description: SANGER: Inhibition of human MG-63 cell growth in a cell viability assay.

HH = format: functional, cell-based; settings: Homo sapiens
Description: SANGER: Inhibition of human HH cell growth in a cell viability assay.

SK-NEP-1 = format: functional, cell-based; settings: Homo sapiens;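 also: growth inhibition of human SK-NEP-1 cells, read out by a cell viability assay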
Description: SANGER: Inhibition of human SK-NEP-1 cell growth in a cell viability assay.

G-402 = format: functional, cell-based, Homo sapiens; settings: Homo sapiens, G-402
Description: SANGER: Inhibition of human G-402 cell growth in a cell viability assay.

H4 = format: functional, cell-based; settings: Homo sapiens
Description: SANGER: Inhibition of human H4 cell growth in a cell viability assay.

U-87 MG = format: functional, cell-based, U-87MG ATCC; settings: Homo sapiens;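 also: growth inhibition of the cells measured with a viability assay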
Description: SANGER: Inhibition of human U-87-MG cell growth in a cell viability assay.

A204 = format: functional, cell-based, Homo sapiens; settings: Homo sapiens, A204;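 also: growth inhibition of human A204 cells, read out with a cell viability assay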
Description: SANGER: Inhibition of human A204 cell growth in a cell viability assay.

HCC1395 = format: functional, cell-based, Homo sapiens; settings: Homo sapiens, HCC1395;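 also: growth inhibition of HCC1395 cells, read out by a cell viability assay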
Description: SANGER: Inhibition of human HCC1395 cell growth in a cell viability assay.

HuCCT-1 = format: functional, cell-based, Homo sapiens, HuCCT1; settings: Homo sapiens, HuCCT-1;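 also: growth inhibition of HuCCT-1 cells, read out by a cell viability assay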
Description: SANGER: Inhibition of human HuCCT1 cell growth in a cell viability assay.

TE-10 = format: functional, cell-based, Homo sapiens; settings: Homo sapiens, TE-10;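 also: growth inhibition of TE-10 cells, measured by a cell viability assay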
SW1783 = format: functional, cell-based; settings: Homo sapiens;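 also: cell growth inhibition measured with a viability assay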
Description: SANGER: Inhibition of human SW1783 cell growth in a cell viability assay.

RT-112 = format: functional, cell-based, Homo sapiens; settings: Homo sapiens, RT-112

Measured: IC50

O=C1N=C(NCc2cccs2)S/C1=C\c1ccc2ncccc2c1
1160 nM: H4
3450 nM: KOSC-2
> 5000 nM: 697 | HuP-T4 | MFM-223 | JAR | NCI-H727 | UO-31 | KS-1 | KM12 | BE-13 | CAMA-1 | KARPAS-299 | KU812 cell line | OVCAR-4 | UACC-257 | DOK | MC116 | A-375 | IA-LM | MEL-HO | BFTC-905 | CTV-1 | NB7 | HAL-01 | OCI-AML2 | LAMA-84 | SK-OV-3 | BEN | NCI-H1581 | NTERA-2-cl-D1 | CAL-85-1 | LS-411N | OMC-1 | RPMI-7951 | A-431 | HCC1806 | GCT | KM-H2 | CAL-33 | IST-SL1 | DK-MG | MG-63 | HH | SK-NEP-1 | G-402 | U-87 MG | A204 | HCC1395 | HuCCT-1 | TE-10 | SW1783 | RT-112

CN(C)C/C=C/C(=O)Nc1cc2c(Nc3ccc(F)c(Cl)c3)ncnc2cc1O[C@H]1CCOC1 [AFATINIB]
482 nM: A-431
155 nM: KU812 cell line
31.9 nM: DOK
> 500 nM: 697 | HuP-T4 | MFM-223 | JAR | NCI-H727 | UO-31 | KS-1 | KM12 | BE-13 | CAMA-1 | KARPAS-299 | OVCAR-4 | UACC-257 | MC116 | A-375 | IA-LM | MEL-HO | BFTC-905 | CTV-1 | NB7 | HAL-01 | OCI-AML2 | LAMA-84 | SK-OV-3 | BEN | NCI-H1581 | NTERA-2-cl-D1 | CAL-85-1 | LS-411N | OMC-1 | RPMI-7951 | KOSC-2 | HCC1806 | GCT | KM-H2 | IST-SL1 | DK-MG | MG-63 | HH | SK-NEP-1 | G-402 | H4 | U-87 MG | A204 | HCC1395 | HuCCT-1 | TE-10 | SW1783 | RT-112
202 nM: CAL-33
